From article PMC10663540, “Structure-based discovery of dual pathway inhibitors for SARS-CoV-2 entry” (Nature Communications, 2023)
Values joined by “and” are separate entries in the source; they are usually repeats but may differ in a detail not shown here. Equal entries are not always repeated. Where two headings read alike, the source gives them in different places.

Experiments:
human CTSL = molecular target: T1, human CTSL (Homo sapiens, UniProt P07711); experiment: FRET enzymatic inhibition assay of CTSL (IC50 measurement); format: biochemical
T1 construct: made in house
T1 sequence (P07711 114-333): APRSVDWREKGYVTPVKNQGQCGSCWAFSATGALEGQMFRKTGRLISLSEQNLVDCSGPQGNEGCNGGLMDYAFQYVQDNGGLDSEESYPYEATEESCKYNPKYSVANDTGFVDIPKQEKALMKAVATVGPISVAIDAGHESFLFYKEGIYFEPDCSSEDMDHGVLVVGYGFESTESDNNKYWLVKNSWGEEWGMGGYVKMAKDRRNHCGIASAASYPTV

Calu-3 cells = settings: rep1-rep3
[1] = system: SARS-CoV-2-S pseudotyped virus Omicron BA.2.12.1; experiment: microbe, parasite or virus in culture; format: cell-based
in vitro = settings: human
TMPRSS2 = TMPRSS2 (Homo sapiens, UniProt O15393); experiment: biochemical; format: biochemical
Chain of TMPRSS2 (O15393 256-492): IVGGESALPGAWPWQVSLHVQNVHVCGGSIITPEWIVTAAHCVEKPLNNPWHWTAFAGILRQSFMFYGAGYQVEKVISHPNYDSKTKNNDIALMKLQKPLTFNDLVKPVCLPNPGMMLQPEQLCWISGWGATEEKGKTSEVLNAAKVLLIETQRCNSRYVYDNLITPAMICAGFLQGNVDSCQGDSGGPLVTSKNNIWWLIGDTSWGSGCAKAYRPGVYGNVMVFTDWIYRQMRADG
Chain of TMPRSS2 (O15393 other isoform, or with tags, fused parts or gaps): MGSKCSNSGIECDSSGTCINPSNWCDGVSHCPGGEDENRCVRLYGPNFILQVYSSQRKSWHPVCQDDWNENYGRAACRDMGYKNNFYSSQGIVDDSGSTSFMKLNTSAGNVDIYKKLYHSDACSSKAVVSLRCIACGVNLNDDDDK

NC(N)=Nc1ccc(C(=O)OCCN2CCN(C(=O)N[C@@H](Cc3ccccc3)C(=O)N[C@H](/C=C/S(=O)(=O)c3ccccc3)CCc3ccccc3)CC2)cc1 [212-148]
Inhibition: CTSL (human CTSL; 212-148 0.0152588 nM, Fig. 5c): 2.91% and -0.21% and -1.28% and 1.99%
Inhibition: CTSL (human CTSL; 212-148 0.0305176 nM, Fig. 5c): 3.33% and -0.12% and 1.43% and -2.77%
Inhibition: CTSL (human CTSL; 212-148 0.0610352 nM, Fig. 5c): -0.57% and 0.90% and 3.39% and -2.15%
Inhibition: CTSL (human CTSL; 212-148 0.12207 nM, Fig. 5c): 9.01% and 2.36% and 0.90% and 3.32%
Inhibition: CTSL (human CTSL; 212-148 0.244141 nM, Fig. 5c): 8.36% and 6.61% and 10.35%
inhibition at 0.000244141 µM (human CTSL; 212-148 0.244141 nM, Fig. 5c): 6.2%
Inhibition: CTSL (human CTSL; 212-148 0.488281 nM, Fig. 5c): 11.98% and 10.08% and 8.64%
inhibition at 0.000488281 µM (human CTSL; 212-148 0.488281 nM, Fig. 5c): 11.8%
Inhibition: CTSL (human CTSL; 212-148 0.976562 nM, Fig. 5c): 27.34% and 25.99% and 25.66%
inhibition at 0.000976562 µM (human CTSL; 212-148 0.976562 nM, Fig. 5c): 23.1%
Inhibition: CTSL (human CTSL; 212-148 1.95312 nM, Fig. 5c): 44.61% and 46.51% and 45.72%
inhibition at 0.00195312 µM (human CTSL; 212-148 1.95312 nM, Fig. 5c): 48%
Inhibition: CTSL (human CTSL; 212-148 3.90625 nM, Fig. 5c): 71.05% and 70.57% and 71.92%
inhibition at 0.00390625 µM (human CTSL; 212-148 3.90625 nM, Fig. 5c): 73.5%
Inhibition: CTSL (human CTSL; 212-148 7.8125 nM, Fig. 5c): 92.07% and 92.09% and 91.52%
inhibition at 0.0078125 µM (human CTSL; 212-148 7.8125 nM, Fig. 5c): 91.9%
Inhibition: CTSL (human CTSL; 212-148 15.625 nM, Fig. 5c): 98.41% and 99.33% and 98.88%
inhibition at 0.015625 µM (human CTSL; 212-148 15.625 nM, Fig. 5c): 98.4%
Inhibition: CTSL (human CTSL; 212-148 31.25 nM, Fig. 5c): 100.04% and 99.69% and 99.78%
inhibition at 0.03125 µM (human CTSL; 212-148 31.25 nM, Fig. 5c): 99.8%
Inhibition: CTSL (human CTSL; 212-148 62.5 nM, Fig. 5c): 100.21% and 99.82% and 99.78%
inhibition at 0.0625 µM (human CTSL; 212-148 62.5 nM, Fig. 5c): 100%
Inhibition: CTSL (human CTSL; 212-148 125 nM, Fig. 5c): 100.33% and 100.36% and 100.30%
inhibition at 0.125 µM (human CTSL; 212-148 125 nM, Fig. 5c): 100%
Inhibition: CTSL (human CTSL; 212-148 250 nM, Fig. 5c): 99.87% and 99.66% and 100.24%
inhibition at 0.25 µM (human CTSL; 212-148 250 nM, Fig. 5c): 100%
Inhibition: CTSL (human CTSL; 212-148 500 nM, Fig. 5c): 100.03% and 100.68% and 99.61%
inhibition at 0.5 µM (human CTSL; 212-148 500 nM, Fig. 5c): 99.9%
Inhibition: CTSL (human CTSL; 212-148 1000 nM, Fig. 5c): 100.34% and 99.76% and 100.32%
inhibition at 1 µM (human CTSL; 212-148 1000 nM, Fig. 5c): 99.5%
Inhibition: CTSL (human CTSL; 212-148 2000 nM, Fig. 5c): 100.56% and 99.97%
inhibition at 2 µM (human CTSL; 212-148 2000 nM, Fig. 5c): 99%
IC50 (human CTSL; substrate Cbz-Phe-Arg-AMC, pH 5.5, mean ± SD, four replicates): 2.13 nM
Cytotoxicity (Calu-3 cells; 0.15 μM): 2.30% and 2.49% and 2.76%
Cytotoxicity (Calu-3 cells; 0.46 μM): 5.33% and 5.48% and 5.69%
Cytotoxicity (Calu-3 cells; 4.1 μM): -1.17% and -0.96% and -0.67%
Cytotoxicity (Calu-3 cells; 12.3 μM): 0.51% and 0.76% and 1.02%
Cytotoxicity (Calu-3 cells; 111.1 μM): -1.18% and -0.95% and -0.65%
Cytotoxicity (Calu-3 cells; 333.3 μM): 32.20% and 32.35% and 32.61%
Cytotoxicity (Calu-3 cells; 1000 μM): 84.78% and 84.85% and 84.92%
Inhibition: BA.2.12.1/Huh-7 ([1]; 212-148 0.0002 μM, Fig. 5d): 25.45% and 41.55%
Inhibition: BA.2.12.1/Huh-7 ([1]; 212-148 0.002 μM, Fig. 5d): 72.96% and 74.23%
Inhibition: BA.2.12.1/Huh-7 ([1]; 212-148 0.02 μM, Fig. 5d): 77.85% and 80.42%
Inhibition: BA.2.12.1/Huh-7 ([1]; 212-148 0.2 μM, Fig. 5d): 82.33% and 85.32%
Inhibition: BA.2.12.1/Huh-7 ([1]; 212-148 2 μM, Fig. 5d): 85.90% and 86.81%
Inhibition: BA.2.12.1/Huh-7 ([1]; 212-148 20 μM, Fig. 5d): 92.77% and 92.47%
inhibition at 0.0002 µM ([1]; Severe acute respiratory syndrome coronavirus 2, Huh-7, 120 h, 212-148 0.0002 μM, Fig. 5d): 26.2%
inhibition at 0.002 µM ([1]; Severe acute respiratory syndrome coronavirus 2, Huh-7, 120 h, 212-148 0.002 μM, Fig. 5d): 70.2%
inhibition at 0.02 µM ([1]; Severe acute respiratory syndrome coronavirus 2, Huh-7, 120 h, 212-148 0.02 μM, Fig. 5d): 75.2%
inhibition at 0.2 µM ([1]; Severe acute respiratory syndrome coronavirus 2, Huh-7, 120 h, 212-148 0.2 μM, Fig. 5d): 82.3%
inhibition at 2 µM ([1]; Severe acute respiratory syndrome coronavirus 2, Huh-7, 120 h, 212-148 2 μM, Fig. 5d): 86.3%
inhibition at 20 µM ([1]; Severe acute respiratory syndrome coronavirus 2, Huh-7, 120 h, 212-148 20 μM, Fig. 5d): 91.6%
EC50 ([1]; Severe acute respiratory syndrome coronavirus 2, Huh-7, read-out: Antiviral efficacy EC50 (95% CI)): 0.4 nM
CC50 (in vitro): 347000 nM
IC50 (TMPRSS2; 0.5 nM TMPRSS2, 10 μM substrate, mean ± SD, four replicates): 1380 nM
Inhibition: TMPRSS2 (TMPRSS2; 212-148 15.2588 nM, Fig. 5b): 5.04% and 4.06% and 3.14%
inhibition at 0.0152588 µM (TMPRSS2; 212-148 15.2588 nM, Fig. 5b): 3.01%
Inhibition: TMPRSS2 (TMPRSS2; 212-148 30.5176 nM, Fig. 5b): 3.05% and 3.16% and 4.84%
inhibition at 0.0305176 µM (TMPRSS2; 212-148 30.5176 nM, Fig. 5b): 4.19%
Inhibition: TMPRSS2 (TMPRSS2; 212-148 61.0352 nM, Fig. 5b): 6.85% and 6.15% and 3.83%
inhibition at 0.0610352 µM (TMPRSS2; 212-148 61.0352 nM, Fig. 5b): 6.56%
Inhibition: TMPRSS2 (TMPRSS2; 212-148 122.07 nM, Fig. 5b): 7.87% and 8.22% and 8.32%
inhibition at 0.12207 µM (TMPRSS2; 212-148 122.07 nM, Fig. 5b): 8.2%
Inhibition: TMPRSS2 (TMPRSS2; 212-148 244.141 nM, Fig. 5b): 13.88% and 12.56% and 13.21%
inhibition at 0.244141 µM (TMPRSS2; 212-148 244.141 nM, Fig. 5b): 13.6%
Inhibition: TMPRSS2 (TMPRSS2; 212-148 488.281 nM, Fig. 5b): 22.52% and 22.28% and 23.91%
inhibition at 0.488281 µM (TMPRSS2; 212-148 488.281 nM, Fig. 5b): 23.3%
Inhibition: TMPRSS2 (TMPRSS2; 212-148 976.562 nM, Fig. 5b): 40.08% and 39.01% and 40.36%
inhibition at 0.976562 µM (TMPRSS2; 212-148 976.562 nM, Fig. 5b): 39.7%
